This is an account of results in patent US12653800B2, “Small molecule inhibitors of TLR2 signaling” (University of Maryland, Baltimore, priority 2015, dated 2026).

The nature of data set [1]: Solubility in water. The data set is classed as physicochemical. As to conditions: compared with C29.
The conditions of data set [2]: in vivo; stated for o-vanillin, reported previously for its isomer vanillin (Beaudry 2010); cited from earlier work.
Data set [3] addresses TLR2/1 (Mus musculus, UniProt Q9QUN7). The experiment in a line: P3C-induced inflammation in vivo in C57BL/6J mice. Also on record: tissue The Jackson Laboratory; host or cells: whole animal; liver RNA and serum analysed. As to conditions: C29L i.p. 1.314 mM/g twice, P3C 100 μg i.p. On the procedure:
FIG. 4. C29L inhibits TLR2/1-induced inflammation in vivo. C57BL/6J mice were pretreated i.p. with vehicle (water) or C29L (1.314 mM/g) for 1 hr. Mice received a second pretreatment i.p. with vehicle (water) or C29L (1.314 mM/g) and subsequently were challenged i.p. with PBS or P3C (100 μg) and sacrificed 1 hr or 3 hrs later. Liver RNA (A) was analyzed by qRT-PCR and serum concentrations (B) were analyzed by Multiplex (*, p≤0.05; ***, p≤0.001; ****, p≤0.0001). Panels A and B, n=6 (the combined data from two separate experiments) for each treatment group.
All animal studies were carried out with institutional approval. Female C57BL/6J mice (6-8 weeks old) were purchased from The Jackson Laboratory (Bar Harbor, ME) and (n=3 mice/group) received PBS, H2O, or C29L (in H2O) i.p. (1.314 mM/g). After 1 h, mice received a second injection of PBS, H2O, or C29L i.p. (1.314 mM/g) and were subsequently challenged i.p. with PBS or P3C (100 μg) for 1 or 3 h. Mice were bled and sera was prepared. Livers were also extracted for qRT-PCR analysis.

Data set [4] has as its system TNF-α-induced signaling. The experiment in a line: hTNF-α-induced IL-8 mRNA in HEK-TLR2 stable transfectants. Format: cell-based, human. As to conditions: C29 10 μM or 50 μM, hTNF-α 300 ng/mL 1 hr.
Data set [5] deals with MyD88-independent pathway. Nature of the data set: IFN-β mRNA in murine macrophages stimulated with agonists that induce IFN-β. As to conditions: C29 50 μM, 3 hrs. Format: cell-based. As to the method:
FIG. 10. Examining the broader specificity of C29 for TLR2 signaling. (A, B) Total RNA was extracted from murine macrophages that had been pretreated for 1 hr with vehicle (65 μM NaOH) or C29 (50 μM) and then stimulated with P3C (50 ng/mL), P2C (100 ng/mL), zymosan (10 μg/mL), S. aureus LTA (1 μg/mL), poly(I:C) (10 μg/mL), LPS (100 ng/mL), R848 (10 μg/mL), or CpG ODN 1668 (5 μM) for 3 hrs in the presence of vehicle or C29. IL-1β and IFN-β mRNA were measured as described in FIG. 1, panel D. (C) THP-1 cells were plated in the presence of PMA (20 ng/mL) for 24 hrs and washed twice in media. Total RNA was extracted from cell cultures pretreated for 1 hr with vehicle (260 μM NaOH) or C29 (50 μM, 100 μM, or 200 μM) and then stimulated with zymosan (10 μg/mL) or S. aureus LTA (1 μg/mL) for 4 hrs in the presence of vehicle or C29. IL-1β mRNA was measured as described in FIG. 1, panel B. Quantitative real-time results represent the mean±SEM from 2 independent experiments each carried out in duplicate (*, p≤0.05; **, p≤0.01; ***, p≤0.001).
Cytokine gene expression was measured by qRT-PCR with transcript-specific primers using SYBR Green in the ABI Prism 7900 Fast Real Time PCR system (Applied Biosystems, Foster City, CA) as described (Cole L E, et al. (2006) Journal of immunology 176(11):6888-6899). […]

Data set [6] deals with TLR2 (Homo sapiens, UniProt O60603). The data set is classed as cell-based. As to conditions: HEK-TLR2 cells, C29 50 μM.
Chain of TLR2 (O60603 21-784 limits assumed): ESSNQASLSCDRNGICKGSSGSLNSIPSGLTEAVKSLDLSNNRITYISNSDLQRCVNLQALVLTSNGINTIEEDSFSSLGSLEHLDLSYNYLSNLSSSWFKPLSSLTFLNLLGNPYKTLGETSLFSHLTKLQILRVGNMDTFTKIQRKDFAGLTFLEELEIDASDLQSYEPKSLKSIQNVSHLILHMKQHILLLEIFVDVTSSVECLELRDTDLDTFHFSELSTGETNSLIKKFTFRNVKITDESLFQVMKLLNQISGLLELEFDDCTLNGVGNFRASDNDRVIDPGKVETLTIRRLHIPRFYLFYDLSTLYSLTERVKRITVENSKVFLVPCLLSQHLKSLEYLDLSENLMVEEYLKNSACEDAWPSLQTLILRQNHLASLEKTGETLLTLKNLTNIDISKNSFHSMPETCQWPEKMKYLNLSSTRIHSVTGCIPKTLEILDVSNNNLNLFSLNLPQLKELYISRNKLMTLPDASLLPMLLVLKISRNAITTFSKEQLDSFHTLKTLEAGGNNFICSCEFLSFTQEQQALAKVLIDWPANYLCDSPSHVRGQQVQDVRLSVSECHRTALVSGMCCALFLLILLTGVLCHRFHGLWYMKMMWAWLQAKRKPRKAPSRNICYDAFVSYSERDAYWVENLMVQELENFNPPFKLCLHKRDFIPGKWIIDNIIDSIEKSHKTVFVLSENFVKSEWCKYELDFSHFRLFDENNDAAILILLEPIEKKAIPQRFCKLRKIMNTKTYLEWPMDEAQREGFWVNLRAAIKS

Chain of TLR2/1 (Q9QUN7 25-784): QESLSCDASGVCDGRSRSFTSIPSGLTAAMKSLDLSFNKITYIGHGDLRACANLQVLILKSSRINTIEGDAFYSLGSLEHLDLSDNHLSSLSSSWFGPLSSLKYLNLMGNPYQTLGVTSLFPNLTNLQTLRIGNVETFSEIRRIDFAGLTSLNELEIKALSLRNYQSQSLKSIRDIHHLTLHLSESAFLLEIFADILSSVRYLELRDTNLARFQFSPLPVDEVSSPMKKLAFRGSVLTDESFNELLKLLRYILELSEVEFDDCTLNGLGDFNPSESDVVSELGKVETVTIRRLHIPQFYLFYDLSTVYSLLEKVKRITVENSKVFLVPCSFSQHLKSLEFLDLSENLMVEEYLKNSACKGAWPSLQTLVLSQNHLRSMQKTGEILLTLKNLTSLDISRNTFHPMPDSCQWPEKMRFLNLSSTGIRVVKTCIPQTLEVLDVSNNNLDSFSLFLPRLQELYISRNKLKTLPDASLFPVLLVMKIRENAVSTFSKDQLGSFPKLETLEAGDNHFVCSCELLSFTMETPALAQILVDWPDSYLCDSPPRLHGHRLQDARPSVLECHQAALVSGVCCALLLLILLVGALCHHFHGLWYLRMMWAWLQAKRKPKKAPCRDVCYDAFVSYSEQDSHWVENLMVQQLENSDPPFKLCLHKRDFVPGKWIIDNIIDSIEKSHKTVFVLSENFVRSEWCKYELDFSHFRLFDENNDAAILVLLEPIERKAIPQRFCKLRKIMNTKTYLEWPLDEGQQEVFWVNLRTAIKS

As to `COc1cccc(C=O)c1O` [Compound C29L, ortho-vanillin], the solubility in water entry in data set [1] was “more soluble in water than C29”. In addition, the bioavailability entry in data set [2] was “poor bioavailability”. Moreover, in data set [3] (1 or 3 hrs), the “P3C-induced IL-12 p40 liver cytokine mRNA” value was “significantly blocked”, the “P3C-induced IL-12 p40 serum protein” value is given as “significantly blocked”, the “P3C-induced TNF-α liver cytokine mRNA” value is “significantly blocked” and the “P3C-induced TNF-α serum protein” value is reported as “significantly blocked”. Moreover, the “P3C-induced IL-12 p40 at the later time point” value in data set [3] (3 hrs) is on record as “significant inhibitory effect”.
Turning to `COc1cccc(/C=N/c2cccc(C(=O)O)c2C)c1O` [Compound C29], the “TNF-α-induced signaling (IL-8 mRNA)” value in data set [4] was “no effect”. Besides, the “IFN-β mRNA (MyD88-independent pathway)” value in data set [5] is listed as “no significant inhibitory effect”. In data set [6] (LVS MOI=10, 4 hrs, TLR2/6 agonist), the “live F. tularensis-induced IL-8 mRNA” value is “significantly inhibited”. Further, in data set [6] (MOI=50, 4 hrs), the “heat-killed Ps. aeruginosa (HKPA)-induced IL-8 mRNA” value is listed as “significantly inhibited” and the “heat-killed S. aureus (HKSA)-induced IL-8 mRNA” value is given as “significantly inhibited”.
